Holding throughout (format): cell-based
Assay [1] concerns neutrophil oxidase. The assay can be described thus: Priming of the neutrophil oxidase / fMLP stimulated respiratory burst by biologically active compounds. As to conditions: added directly to the assay. An excerpt:
The priming activity of plasma specimens from various sources including patient samples and blood components has been described herein. The effects on priming by various dilutions may correlate with the concentration of biologically active compounds in the specimens. Many of these compounds are well characterized and their priming activities determined. […] Each has its own concentration dependent effects. […] Similar effects are seen with complement fragments (e.g., C5a), other biologically active lipids (e.g., leukotrienes), and other compounds (e.g., sCD40L). Antibodies to neutrophil antigens (e.g., HNA-3a) also can prime the oxidase enzyme system. All these agents may be detected in plasma from blood components implicated in TRALI or plasma from patients sustaining a TRALI reaction. All may be added directly to the assay and priming activity detected as described in other sections.

Assay [2] concerns peripheral blood neutrophils. The assay can be described thus: Priming assay using fluorescent probe (DHR) for hydrogen peroxide, flow cytometry. The protocol: Hydrogen peroxide (H2O2) is another reactive oxygen species produced by neutrophils when the NADPH oxidase and associated respiratory burst are activated. H2O2 can be detected intracellularly by incubating cells with dihydrorhodamine (DHR). This non-fluorescent compound will be oxidized to rhodamine, a potent fluorophore, when H2O2 is generated by activated neutrophils. This assay can be used to detect enhancement of the fMLP stimulated respiratory burst. […] Isolated peripheral blood neutrophils are incubated with 50 μM DHR. After exposure to fMLP (1 μM) or PAF (1 μM) for 3 minutes and fMLP (1 μM), the cells are placed on ice and samples analyzed with the evaluation of 10,000 events on a BD Canto flow cytometer. […] When PAF is used to prime the fMLP response, the result is a marked increase in H2O2 production expressed as MCF (˜250 MCF units).
This assay has been further optimized for the following reagents: DHR, 50 μM with the best loading time of 1 minute. Optional concentration of fMLP is 1 μM and PAF 1 μM. The assay should be analyzed in a flow cytometer as soon as possible but may be delayed up to 4 hours after completion without jeopardizing the results. Finally, plasma itself quenches the fluorescence. As a result the priming assay on this platform requires exposure of the cells to buffer or test sample for priming (PAF, plasma, etc), a low speed centrifugation to pellet cells, resuspension of cells in DHR containing buffer, then stimulation with fMLP. Determination of MCF is by analysis of 20,000 events. FIG. 6 summarizes results, expressed as mean ±SEM, with this assay in four separate experiments. Resting cells with buffer present very low levels of H2O2 with an increase when resting cells are stimulated with fMLP. Plasma from Day 0 and 7 stored platelet concentrates has little effect in the absence of fMLP.
For orientation: A flow cytometer gives signals particle by particle.

The test system of assay [3] is neutrophils. The experiment in a line: Detection of priming by chemiluminescence (Diogenes probe). As to conditions: priming sample, then fMLP; FIG. 7 and FIG. 8. The protocol: A third assay makes use of energy from chemiluminescence to determine oxygen radical generation from activated neutrophils. In this reaction, neutrophils are incubated with the priming sample or buffer, then exposed to fMLP after addition of the chemiluminescent probe, Diogenes, and the energy released determined in a chemiluminescence reader. The optimal cell concentration is between 2.5×10^6 cells/ml and 5×10^6 cells/ml. The chemiluminescence is >90% SOD inhibitable and so detects superoxide anion. The optimal addition of diogene is 20 μl to provide specific determination of oxygen radicals released by the neutrophils respiratory burst. […] Buffer alone is included for control. […] As with fluorescence platform, plasma nonspecifically quenches the chemiluminescence. This can be circumvented with an extra wash step to remove plasma after incubating cells with the priming stimulus. The resultant assay is sensitive to the effect in stored blood products. […] The priming effect for PAF is presented for comparison. The results are expressed as mean ±SEM. This platform, using chemiluminescence, can be used to determine priming by biologic samples.

The test system of assay [4] is cytoplasts. The experiment in a line: Cytoplast priming assay, superoxide anion measured as cytochrome c reduction. As to conditions: PAF 1 μM, fMLP 1 μM. On the procedure:
Cytoplasts are neutrophils which have been sedimented on a 20% Ficoll gradient at 77,000×g. Cytoplasts, are devoid of nucleus, granules and other subcellular organelles. Cytoplasts retain the ability for random and directed migration, phagocytosis of opsonized particles as well as activation of a respiratory burst and generation of reactive oxygen species. They can be frozen at −70° C. and thawed; the thawed cytoplasts can be used as targets for priming activity. The advantage is that cytoplasts would be readily available for assaying priming activity of biologic specimens (FIG. 1B, 113) in place of freshly isolated neutrophils from a healthy donor.

Consider “IL-8: cytokine/chemokine found in biologically active plasma samples”, for which the “priming of the fMLP stimulated respiratory burst” value in assay [1] is listed as “concentration dependent priming”.
The same measure, in the same setting: as for TNF-alpha, the entry is “concentration dependent priming”.
In the case of fMLP, in assay [2] (fMLP 1 μM by itself, 50 μM DHR, FIG. 5), the “mean channel fluorescence (H2O2 production)” value is 45.
With platelet activating factor [PAF], the “priming of the fMLP stimulated chemiluminescence (RLUs)” value in assay [3] is given as “higher level of relative light units (RLUs) as well as a more prolonged time course at maximal production”. Further, the “H2O2 production expressed as MCF” value in assay [2] (PAF 1 μM for 3 minutes, then fMLP 1 μM, 50 μM DHR, FIG. 5) was roughly 250 MCF units. The “priming of the fMLP stimulated respiratory burst (H2O2, MCF)” value in assay [2] (priming sample, then fMLP, four separate experiments, FIG. 6) was “markedly enhanced”. In addition, in assay [4], the “enhancement of the fMLP stimulated respiratory burst by priming” value lay within 1.6 to 2.0 fold.

(Values after patent US20090233372A1, “COMPOSITIONS, KITS AND METHODS FOR DETERMINING ETIOLOGY OF TRALI AND DETECTING PATIENTS AT RISK FOR THIS TRANSFUSION REACTION” (Bonfils Blood Center, priority 2008, published 2009).)
